# From PMC11747586, “Synthesis and Investigation of Peptide–Drug Conjugates Comprising Camptothecin and a Human Protein‐Derived Cell‐Penetrating Peptide” (Chemical Biology & Drug Design, 2025)
# Where two headings read alike, the source gives them in different places. Residues, ends and D or L forms follow the SMILES beside them.
# Assays:
# HT144 (melanoma) cells = assay: cells; settings: 72 h, concentration range 16 nM—2 μM
# Protocol: (§1) Cell death was measured using resazurin, with 0.1% (v/v) Triton X‐100 as a control for 100% cell death. Data points are expressed as mean ± SD for at least two biological replicates. Dose response curves were fitted using [inhibitor] versus response with variable slope, Graphpad Prism v10. […] RBC lysis was determined by measuring released hemoglobin, with 0.1% (v/v) Triton X‐100 as a control for 100% cell lysis. Melittin was included as a membranolytic control. Data points are expressed as mean ± SD for two technical replicates. Dose response curves were fitted using [inhibitor] versus response with variable slope, Graphpad Prism v10. […] CC50 values are expressed as mean (SEM).
# (§2) Cell death was measured using resazurin, with 0.1% (v/v) Triton X-100 as a control for 100% cell death. Data points are expressed as mean ± SD for at least two biological replicates. CC50 values are expressed as mean (SEM). Note: CPT-dipeptide-PDIP was not included in this study. c[A]PDIP is a desulfurized variant of cPDIP 2 (see Table S1) to prevent the presence of free thiol during assays. […]
# (§3) HaCaT cells were grown in DMEM medium and HT144 cells were grown in RPMI medium supplemented with 2 mM L-glutamine and 10 mM sodium pyruvate. Media were supplemented with 10% (v/v) fetal bovine serum, 100 units/mL of penicillin and […] of streptomycin. Flasks of cultured cells were maintained in a humidified incubator (37 °C, 5% CO2) and passaged every 2–3 days to maintain cultures between 20–90% confluence. Cell line identity was verified by comparing […]
# (§4) STR profiles of the cell lines against database entries from the DSMZ-German collection of microorganisms and cell cultures, GmBH https://celldive.dsmz.de/str/browse.
# (§5) Toxicity to the HT144 and HaCaT cell lines was tested following peptide treatment by measuring the metabolism of resazurin into fluorescent resorufin. The assays were performed with 5000 cells/well (96-well plate) in serum free media. Cells were incubated with serially diluted peptides, PDCs or […]
# cells = assay: cells
# Protocol: as §1, §2, §3, §4, §5
# [1] = Parallel artificial membrane permeability assay (PAMPA); assay type: in vitro ADME; settings: for Papp at 4 h, 4 μM: PAMPA
# Protocol: FIGURE 4 (A) Membrane permeability and cellular uptake of PDCs, scaffold peptides, and CPT. Compounds were added to PAMPA wells (4 μM) and incubated for 4 h. Supernatant from apical and basolateral sides of the membrane were collected and analyzed using LC–MS. The amount in the combined soluble fractions was compared to the starting amount to determine % recovery, and the apparent permeability (Papp) was calculated as before (Sevin et al. [2013]). Data is expressed as mean ± SD from a single experiment with three technical replicates. (B) Internalization/cell membrane association of PDCs 12–14 and PDIP with HT144 cells. Cells were treated with PDIP or PDCs (4 μM) for 1 h, washed to remove extracellular compound, then extracted with 75% (v/v) MeCN in mQH2O (containing 1.75% (v/v) TFA), to recover soluble peptide or PDC from precipitated cell proteins. The relative amount of internalized peptide or PDC was determined by integrating area under the curve (AUC) for the [M + 6H]^6+ m/z peak (for the intact mass) using time of flight–mass spectrometry (see Figure S2). […] Data is expressed as mean ± SD from a single experiment with three technical replicates for each treatment and control and was analyzed with ANOVA (Tukey multiple comparisons; **p < 0.01, *p < 0.05). (C) Detection of intracellular CPT following 6 h treatment of HT144 cells with CPT and PDCs 12 and 14. […] Data is expressed as mean ± SD from a single experiment with three technical replicates for each treatment and was analyzed with ANOVA (Fisher multiple paired comparisons; **p < 0.01, *p < 0.05). TEXT PRINTED IN THE PICTURE: (A) PDIP: % recovered (soluble fractions): 94 | (A) 12: % recovered (soluble fractions): 58 | (A) 14: % recovered (soluble fractions): 33 | (A) 15: % recovered (soluble fractions): 40 | (A) c[A] PDIP: % recovered (soluble fractions): 34 | (A) CPT: % recovered (soluble fractions): 92 […]
# For the first assay, the PDCs (12–15), scaffold peptides and CPT (4 μM) were added to the apical side of PAMPA monolayers and incubated for 4 h. […] PDIP, CPT, and PDCs 12 and 14 had high permeability (Papp ≥ 2 × 10^−6 cm/s), highlighting that these PDCs maintain membrane permeability with the CPT cargo attached. […] Reliable permeability data were not obtained for PDC 13 because of poor recovery of the PDC from soluble fractions, and degradation during the 4 h PAMPA experiment. […] Instability of the carbonate linkage within CPT conjugates containing a dipeptide linker has been previously reported (Walker et al. [2002]), highlighting the potential incompatibility of this drug–linker combination for CPT PDCs. Considering the observed degradation of 13 in the cell‐free assay, it is also possible that extracellular degradation occurred during the cytotoxicity assays.
# Parallel artificial membrane permeability assay (PAMPA)
# PAMPA was performed according to the manufacturer instructions for the BD Gentest pre-coated PAMPA plate system (BD Biosciences), as previously described.16 Briefly, peptides and PDCs (4 μM in PBS) were added to the apical side of PAMPA wells and incubated for 4 h at 37 °C, 5% CO2 with 95% humidity. Soluble fractions were recovered from the apical and basolateral sides, and compound concentration was quantified using a Shimadzu LCMS-2020 instrument with a Phenomenex 5 µm C18 / 300 Å / 150 x 2 mm LC column. Data was collected from three technical replicates for each compound. The % recovery was determined from (combined from apical and basolateral fractions) relative to the starting concentration:
# Recovery rate : R (%) = (C஺ ×V஺ +C஻ ×V஻ )× 100 where CA and CB are the apical and basolateral concentrations (µM), VA and VB are the apical and basolateral volumes (mL), and C0 is the initial concentration (µM).
# The apparent permeability coefficient (Papp) was calculated using the following equations17 and where A is the membrane surface area (cm2): […]
# [2] = Cytotoxicity (resazurin) against cultured HaCaT noncancerous cells
# Protocol: as §1, with “(SEM). […]” for “(SEM).”
# as §3, §4
# (§6) Toxicity to the HT144 and HaCaT cell lines was tested following peptide treatment by measuring the metabolism of resazurin into fluorescent resorufin. The assays were performed with 5000 cells/well (96-well plate) in serum free media. Cells were incubated with serially diluted peptides, PDCs or drugs for 72 h or 24 h (37 °C, 5% CO2). PBS and 0.1% (v/v) Triton X-100 were included as controls for 0% and 100% toxicity. Resazurin was added at 0.02% (w/v) final concentration 2 h prior to the assay end point. Fluorescence (λex = 560 nm, λem = 585 nm) was measured using a Tecan infinite M1000Pro multiplate reader. Percentage cytotoxicity was calculated relative to 0% and 100% controls.
# (§7) Dose-response curves were fitted and CC50 values were determined using [inhibitor] vs response with four parameters with the top constrained to 100% (GraphPad Prism version 10.0.2). Data was collected as three biological replicates, with experiments conducted on different days.
# (§8) Red blood cell (RBC) lysis
# (§9) Human RBCs and serum were obtained from healthy volunteers via the Red Cross Lifeblood, Brisbane, Australia. RBCs were washed three times with PBS and stored in culture medium (RPMI
# [3] = tested on: HaCaT (noncancerous) cells; assay: as above; settings: read-out: CC50 HaCaT; 72 h incubation, resazurin; mean (SEM)
# Protocol: as §1, with “(SEM). […]” for “(SEM).”
# as §3, §4, §6, §7, §8, §9
Structure (SMILES),cytotoxic activity against HT144 (HT144 (melanoma) cells),CC50 (cells) [µM],"% recovered (soluble fractions) ([1]; 4 μM, 4 h, combined apical and basolateral fractions) [%]","Papp at 4 h, 4 μM ([1]; 4 μM, 4 h, apical to basolateral, read-out: apparent permeability (Papp)) [×10⁻⁶ cm/s]",CC50 [2] [µM],"Papp at 4 h, 4 μM [1] [×10⁻⁶ cm/s]",CC50 [3] [µM]
CC[C@H](C)[C@@H]1NC(=O)[C@H](CCCCN)NC(=O)[C@H](CCCCN)NC(=O)[C@H](Cc2ccc(O)cc2)NC(=O)[C@H](CC(C)C)NC(=O)[C@@H]2CCCN2C(=O)CNC(=O)CNC(=O)[C@@H](NC(=O)CN)CSSC[C@@H](C(=O)N[C@@H](CCC(=O)O)C(=O)N[C@@H](CO)C(N)=O)NC(=O)[C@H](CC(C)C)NC(=O)[C@H](CCCCN)NC(=O)[C@H](CCCCN)NC(=O)[C@H]([C@@H](C)CC)NC(=O)[C@H]([C@@H](C)CC)NC(=O)[C@H](CCCCN)NC(=O)[C@H](CCCCN)NC(=O)[C@H](Cc2ccc(O)cc2)NC(=O)[C@H](CC(C)C)NC(=O)[C@@H]2CCCN2C(=O)[C@H](C)NC(=O)CNC(=O)CNC(=O)[C@H](Cn2cc(CCCC(=O)O[C@]3(CC)C(=O)OCc4c3cc3n(c4=O)Cc4cc5ccccc5nc4-3)nn2)NC(=O)CNC(=O)CNC(=O)[C@H](CO)NC(=O)[C@H](CCC(=O)O)NC(=O)[C@H](CC(C)C)NC(=O)[C@H](CC(C)C)NC(=O)[C@H](CCCCN)NC(=O)[C@H](CCCCN)NC(=O)[C@H]([C@@H](C)CC)NC1=O [PDC 12],no activity,> 2,58,≥ 2,> 2,,
CC[C@H](C)[C@@H]1NC(=O)[C@H](CCCCN)NC(=O)[C@H](CCCCN)NC(=O)[C@H](Cc2ccc(O)cc2)NC(=O)[C@H](CC(C)C)NC(=O)[C@@H]2CCCN2C(=O)[C@H](C)NC(=O)CNC(=O)CNC(=O)[C@H](CO)NC(=O)CNC(=O)CNC(=O)[C@H](CO)NC(=O)[C@H](CCC(=O)O)NC(=O)[C@H](CC(C)C)NC(=O)[C@H](CC(C)C)NC(=O)[C@H](CCCCN)NC(=O)[C@H](CCCCN)NC(=O)[C@H]([C@@H](C)CC)NC(=O)[C@H]([C@@H](C)CC)NC(=O)[C@H](CCCCN)NC(=O)[C@H](CCCCN)NC(=O)[C@H](Cc2ccc(O)cc2)NC(=O)[C@H](CC(C)C)NC(=O)[C@@H]2CCCN2C(=O)[C@H](C)NC(=O)CNC(=O)CNC(=O)[C@H](C)NC(=O)CNC(=O)CNC(=O)[C@H](CO)NC(=O)[C@H](CCC(=O)O)NC(=O)[C@H](CC(C)C)NC(=O)[C@H](CC(C)C)NC(=O)[C@H](CCCCN)NC(=O)[C@H](CCCCN)NC(=O)[C@H]([C@@H](C)CC)NC1=O [c[A]PDIP] (cyclo(AGGAPLYKKIIKKLLESGGSGGAPLYKKIIKKLLESGG)),,9.35,,,~32,~0.4,≥ 32
